Measurements: PubChem BioAssay (NCI)
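48-hour exposure; five concentrations; linearly interpolated endpoints. TGI denotes the concentration required for complete inhibition of growth.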

Columns and labels:
Assay in all cases: NCI-60 cell line screen, 48 h
COLO 205 colon = system: COLO 205 colon
K-562 leukemia = system: K-562 leukemia
MDA-N = system: MDA-N
HCT-116 colon = system: HCT-116 colon
MOLT-4 leukemia = system: MOLT-4 leukemia
SF-295 CNS = system: SF-295 CNS
KM12 colon = system: KM12 colon
T-47D breast = system: T-47D breast
DU-145 prostate = system: DU-145 prostate
A498 renal = system: A498 renal
ACHN renal = system: ACHN renal
UO-31 renal = system: UO-31 renal
OVCAR-8 ovarian = system: OVCAR-8 ovarian
MDA-MB-231 breast = system: MDA-MB-231 breast
SR leukemia = system: SR leukemia
NCI/ADR-RES ovarian = system: NCI/ADR-RES ovarian
MCF7 breast = system: MCF7 breast
UACC-62 melanoma = system: UACC-62 melanoma
SNB-75 CNS = system: SNB-75 CNS
HCC-2998 colon = system: HCC-2998 colon
PC-3 prostate = system: PC-3 prostate
M14 melanoma = system: M14 melanoma
OVCAR-4 ovarian = system: OVCAR-4 ovarian
IGROV1 ovarian = system: IGROV1 ovarian
HOP-92 NSCLC = system: HOP-92 NSCLC
NCI-H522 lung = system: NCI-H522 lung
U251 CNS = system: U251 CNS
HCT-15 colon = system: HCT-15 colon
HS 578T breast = system: HS 578T breast
786-0 renal = system: 786-0 renal
LOX IMVI melanoma = system: LOX IMVI melanoma
TK-10 renal = system: TK-10 renal
RXF 393 renal = system: RXF 393 renal
UACC-257 melanoma = system: UACC-257 melanoma
A549 NSCLC = system: A549 NSCLC
NCI-H226 lung = system: NCI-H226 lung
SK-MEL-5 melanoma = system: SK-MEL-5 melanoma
HL-60(TB) leukemia = system: HL-60(TB) leukemia
MALME-3M melanoma = system: MALME-3M melanoma
NCI-H460 lung = system: NCI-H460 lung
MDA-MB-435 = system: MDA-MB-435
SK-OV-3 ovarian = system: SK-OV-3 ovarian
RPMI-8226 leukemia = system: RPMI-8226 leukemia
SK-MEL-28 melanoma = system: SK-MEL-28 melanoma
SF-268 CNS = system: SF-268 CNS
EKVX NSCLC = system: EKVX NSCLC
HOP-62 NSCLC = system: HOP-62 NSCLC
CAKI-1 renal = system: CAKI-1 renal
NCI-H23 lung = system: NCI-H23 lung
SNB-19 CNS = system: SNB-19 CNS
OVCAR-5 ovarian = system: OVCAR-5 ovarian
HT29 colon = system: HT29 colon
CCRF-CEM leukemia = system: CCRF-CEM leukemia
SN12C renal = system: SN12C renal
SK-MEL-2 melanoma = system: SK-MEL-2 melanoma
SW-620 colon = system: SW-620 colon
BT-549 breast = system: BT-549 breast
SF-539 CNS = system: SF-539 CNS

Measured: TGI

O=c1[nH]c(=O)c2c3n(cc2[nH]1)CCCCC3
not listed: SK-MEL-2 melanoma | SW-620 colon | BT-549 breast | SF-539 CNS
> 100 µM: all other assays above

CCN(CC)CCCNC(=O)c1cc(-c2nccn2C)nc2ccccc12
not listed: SF-295 CNS | SR leukemia | HS 578T breast | SK-OV-3 ovarian | SK-MEL-28 melanoma
> 100 µM: all other assays above
